Laboratory results: PMC5563081, “Modulating Protein-Protein Interactions of the Mitotic Polo-like Kinases to Target Mutant KRAS” (Cell Chemical Biology, 2017)
Where two headings read alike, the source gives them in different places.

Legend:
[1] = test system: Panc-1; assay: Cell viability (SRB), Panc-1; assay type: cell-based, human; settings: Panc-1, c-MET inhibitor alone, SRB 72 h, Figure S5C, read-out: EC50, % survival
Method: SW48 Parental, SW48 G12D, Panc-1, HPAF-II, Panc 02.03 and Panc 05.04 cell lines were seeded overnight at 5000 cells per well in a 96 well plate in recommended media (ATCC). Compounds were added the following day and viability was measured at 72h using the sulforhodamine B (SRB) colorimetric assay as follows. Cells were fixed by replacing media with 1% v/v Trichloroacetic Acid (TCA) (Sigma-Aldrich) at 4°C and incubated for 1h also at 4°C. Wells were washed thoroughly with copious amounts of deionised water before staining with Sulforhodamine B (SRB) (Sigma-Aldrich) solution (0.057% w/v in 1% v/v Acetic Acid (VWR)) for 30 min. Stain was aspirated and wells washed with several changes of 1% v/v Acetic Acid until unbound stain was removed, before air-drying. Bound stain was solubilized with 100μl / well 10mM Tris (pH 8.0) (Trizma Base (121.1) Sigma-Aldrich) with agitation for 10 min. Fluorescence intensity was recorded at Ex540nm / Em590nm using a BMG Pherastar Plus plate reader ([Vichai and Kirtikara, 2006]).
Pancreatic organoids were extracted and cultured as detailed above ([Boj et al., 2015]). In brief, pancreatic organoids were seeded at 600 cells per well in a 96 well plate and allowed to grow for 7 days with media replenishment on the 3rd day. Full-grown organoids were then treated with compounds for 72h and viability determined using CellTitre Glo 3D assay (Promega). For viability assays with c-MET siRNA, cells were reverse transfected in a 6 cm dish using Dharmafect 1 (GE Dharmacon) per manufacturer’s instructions. On the following day, cells were trypsinised and plated onto 96 well plates or 6 well plates. The 96 well plates were treated with a dose range of compounds or DMSO, and viability was determined via SRB colorimetric assay. Cells in the 6 well plates were collected at the end of experiment to corroborate knockdown of c-MET by Western blotting.
Cells were reverse-transfected with 50nM (SW48 parental, SW48 KRAS G12D and Panc-1) or 25nM (HeLa Flp-In T-REx parental cells) siRNA using Dharmafect (GE Dharmacon) as manufacturer’s recommendations. Where transfected cells were subsequently treated with compounds, the cells were allowed to settle overnight and then treated with compound at the indicated concentration the following day. Viability was assessed after 72 hrs, with the SRB colorimetric assay. Knockdown efficiencies were determined by Western blot or RT-qPCR. Oligos against the following target sequences were used. c-MET (Qiagen): […], […], […]. PLK1 (Qiagen): […]. PLK2 (SMARTpool; Dharmacon): ACACAGAAGGAGAACGAUA, CAUCAAUGAGGAUAGGAUA, CUGCCUAGUGUUACUGAUA, ACAAAGUCUACGCCGCAAA. PLK3 (SMARTpool; Dharmacon): GCGAGAAGAUCCUAAAUGA, GCAAGUGGGUUGACUACUC, GCACAUCCGUUGGCCAUCA, GACCUCAAGUUGGGAAAUU. PLK4 (Qiagen): […].

[2] = target: T1, NanoLuc-PLK1 fusion protein (Homo sapiens, UniProt P53350); assay: NanoLuc thermal shift assay; assay type: cell-based; settings: compound at 100 μM
T1 construct: NanoLuc fused to the N-termini of full-length human PLK1, PLK2, PLK3, PLK4 or p38α MAPK; expressed in transfected cells; host or cells: HeLa, transient, digitonin-permeabilised
Method: (§1) HeLa cells were transfected with plasmids encoding NanoLuc fused to the N-termini of full-length human PLK1, PLK2, PLK3, PLK4 or p38α MAPK. Twenty-four h after transfection, the thermal stability of the fusion proteins was tested using a modified version of the assay protocol supplied by Promega. Briefly, cells were harvested by tyrpsinisation and centrifugation, counted, and resuspended to 200,000 cells/ml in 3mls of serum-free OptiMEM media. Cells were then permeabilised using with 50ug/ml digitonin in DMSO for 5 min and incubated with test compounds at 100uM, plus protease inhibitor cocktail (Promega G6521), in a final concentration of 5% DMSO for 1 h at 37°C. After incubation, 100 μl/well of cells were aliquoted into a 96-well, thin-walled PCR plate and then heated for 3 minutes using a pre-warmed MJ Tetrad DNA Engine set to run a temperature gradient of 42 to 66°C. The plates were then cooled to room temperature for 10 min, and then 80μl of each sample was transferred to a white-walled 96-well Nunc plate before NanoBRET™ NanoGlo Substrate diluted in Opti-MEM was added. NanoLuc enzyme activity was read out within 10 min using a BMG Clariostar plate reader.
(§2) Nanoluciferase enzyme activity of PLK1- or PLK4-Nanoluc fusion protein was analysed using GraphPad Prism. Data were normalised as follows: (treatment A RLU value at X°C temp/treatment A RLU value at 42°C temp) x 100. Using the Boltzmann sigmoidal equation, a curve was then fitted to the normalised data. From this non-linear fit, a V50 value was generated, which in this context represents the aggregation onset temperature (Tagg), at which 50% of the PLK1- or PLK4-Nanoluc fusion protein has aggregated.

[3] = target: T2, NanoLuc-PLK4 fusion protein (Homo sapiens, UniProt O00444); assay: NanoLuc thermal shift assay; assay type: cell-based; settings: compound at 100 μM
T2 construct: NanoLuc fused to the N-termini of full-length human PLK1, PLK2, PLK3, PLK4 or p38α MAPK; expressed in transfected cells; host or cells: HeLa, transient, digitonin-permeabilised
T2 sequence (O00444 1-970): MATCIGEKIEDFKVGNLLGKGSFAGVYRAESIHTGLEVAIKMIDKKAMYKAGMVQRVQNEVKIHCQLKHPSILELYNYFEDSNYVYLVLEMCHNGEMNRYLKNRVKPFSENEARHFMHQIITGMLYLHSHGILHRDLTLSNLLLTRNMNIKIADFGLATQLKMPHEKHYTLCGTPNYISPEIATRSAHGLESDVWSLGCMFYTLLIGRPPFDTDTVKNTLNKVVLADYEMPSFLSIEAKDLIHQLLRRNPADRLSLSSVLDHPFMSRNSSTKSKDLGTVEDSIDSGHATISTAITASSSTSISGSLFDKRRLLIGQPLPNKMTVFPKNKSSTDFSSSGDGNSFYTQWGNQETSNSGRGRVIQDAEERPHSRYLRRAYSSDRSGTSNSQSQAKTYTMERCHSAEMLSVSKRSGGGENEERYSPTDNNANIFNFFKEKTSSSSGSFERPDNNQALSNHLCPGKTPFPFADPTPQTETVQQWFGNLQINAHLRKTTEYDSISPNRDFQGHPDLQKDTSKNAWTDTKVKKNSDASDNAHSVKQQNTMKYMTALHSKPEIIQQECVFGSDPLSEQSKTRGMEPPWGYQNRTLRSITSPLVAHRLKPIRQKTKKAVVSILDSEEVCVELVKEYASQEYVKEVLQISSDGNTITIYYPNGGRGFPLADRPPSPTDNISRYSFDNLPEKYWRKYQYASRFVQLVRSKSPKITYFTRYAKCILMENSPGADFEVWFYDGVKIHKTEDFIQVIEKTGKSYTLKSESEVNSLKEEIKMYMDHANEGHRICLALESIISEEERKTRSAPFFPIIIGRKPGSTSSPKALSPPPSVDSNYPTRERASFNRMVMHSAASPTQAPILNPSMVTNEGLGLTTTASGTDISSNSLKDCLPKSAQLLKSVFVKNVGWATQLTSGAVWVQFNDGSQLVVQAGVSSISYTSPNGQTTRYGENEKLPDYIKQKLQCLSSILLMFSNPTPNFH
Method: as §1, §2

[4] = test system: HeLa cells; assay: Mitotic index assay in HeLa cells; assay type: cell-based, human; settings: for EC50: Homo sapiens, HeLa, Figure 5A, read-out: MI EC50 (cellular assay for mitotic arrest)
Method: Cells were plated at 10 000/well in 96-well plates and incubated overnight. The following day compound stocks in DMSO were diluted in medium then added to cells with a maximum final DMSO concentration on cells of 0.2%. […] Cells were permeabilised with 0.1% Triton X-100 then incubated with anti-phospho-histone H3 (Ser10) antibody (Abcam ab5176). The cells were washed with PBS then incubated with AlexaFluor 488 labelled goat anti-rabbit IgG (Invitrogen A11034) in the presence of 4ug/ml Hoechst 33342 (Invitrogen H3570). Cells were washed in PBS then imaged on an Arrayscan VTi HCS instrument (Thermo Fisher) using the Target Activation V4 Bioapplication. A user-defined threshold was applied to identify mitotic cells based on the intensity of phospho-histone H3 staining.

[5] = test system: HCT116 wt; assay: Viability of drug-sensitive parental HCT116 cells; assay type: cell-based; settings: Homo sapiens, HCT-116, 72 h
Method: (§3) Viability is represented as percentage survival normalised to DMSO control. […] PCR reactions were carried out using Amplitaq Gold polymerase (Applied Biosystems N8080241) with a 25-cycle programme. […] Prepared samples were submitted for next generation sequencing using MiSeq Nano run with Nextera XT library preparation. Sequencing and subsequent bioinformatics were performed by Cambridge Genomic Services (University Of Cambridge).

[6] = test system: HCT116 BI 2536-Res. Clones; assay: Viability of BI 2536-resistant HCT116 clones; assay type: cell-based, human; settings: Homo sapiens, HCT-116; BI2536-Res. (Mean), 72 h; read-out: GI50
Method: as §3

[7] = test system: HCT116 KRAS G13D cells; assay: Development of drug resistance under continuous treatment; assay type: cell-based, human; settings: continuous treatment at 5x GI50
Method: HCT116 wild-type cells (Horizon Discovery Ltd.) cultured in McCoy's 5A (Life Technologies #26600) medium supplemented with 10% Foetal Calf Serum (Life Technologies #10270) were treated on three occasions with titrations of the PLK1 ATP-competitive inhibitor BI 2536 (Selleckchem #S1109) or Poloppin in order to determine the 2.5x GI50, 3x GI50 and 5x GI50 values for each compound required to initiate the development of resistance. Cells were subsequently treated with 2.5x GI50, 3x GI50 and 5x GI50 concentrations of either compound, changing media and compound every three to four days until resistant colonies emerged or no viable cells remained. Single cell clones were isolated from cells resistant to 5x GI50 BI 2536. Equivalent experiments using 3x GI50 or 2.5x GI50 doses of Poloppin or BI2536 yielded identical results (data not shown). BI 2536-resistant clones (HCT116 BI 2536-Res. Clones) were treated with BI2536 or Poloppin, alongside drug-sensitive parental HCT116 cells (HCT116 wt), and viability was assessed after 72 h. Viability is represented as percentage survival normalised to DMSO control. […]

[8] = target: T3, PLK1-PBD(345-603), Polo-box domain of human Polo-like kinase 1 (human, UniProt P53350 345-603); assay: fluorescence polarisation; competition format: TAMRA-labelled phosphopeptide 10 nM, PBD 84 nM (2.5 ng/ul), PBS pH 7.4 plus 0.03% tween; compound and PBD incubated together at 22 C for 1 hour before the peptide was added; same procedure for PLK2 PBD with its own peptide; settings: both partners purified
T3 construct: Polo-like kinase 1 (PLK1), human, Polo-box domain, residues 345-603; also called PLK1 PBD (aa345-603); PBDaa345-603; source: E. coli C41, purified (GST-Sepharose column, cleaved on column with PreScission protease, gel chromatography)
T3 sequence (P53350 345-603): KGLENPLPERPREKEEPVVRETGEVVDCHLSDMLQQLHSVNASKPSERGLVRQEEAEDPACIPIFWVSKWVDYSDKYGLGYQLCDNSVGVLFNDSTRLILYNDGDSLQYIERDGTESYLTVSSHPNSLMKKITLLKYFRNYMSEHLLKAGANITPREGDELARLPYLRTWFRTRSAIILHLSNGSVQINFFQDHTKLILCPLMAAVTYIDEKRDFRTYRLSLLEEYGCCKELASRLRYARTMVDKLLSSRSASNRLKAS

T1 sequence (P53350 whole entry, the tested form may be a part): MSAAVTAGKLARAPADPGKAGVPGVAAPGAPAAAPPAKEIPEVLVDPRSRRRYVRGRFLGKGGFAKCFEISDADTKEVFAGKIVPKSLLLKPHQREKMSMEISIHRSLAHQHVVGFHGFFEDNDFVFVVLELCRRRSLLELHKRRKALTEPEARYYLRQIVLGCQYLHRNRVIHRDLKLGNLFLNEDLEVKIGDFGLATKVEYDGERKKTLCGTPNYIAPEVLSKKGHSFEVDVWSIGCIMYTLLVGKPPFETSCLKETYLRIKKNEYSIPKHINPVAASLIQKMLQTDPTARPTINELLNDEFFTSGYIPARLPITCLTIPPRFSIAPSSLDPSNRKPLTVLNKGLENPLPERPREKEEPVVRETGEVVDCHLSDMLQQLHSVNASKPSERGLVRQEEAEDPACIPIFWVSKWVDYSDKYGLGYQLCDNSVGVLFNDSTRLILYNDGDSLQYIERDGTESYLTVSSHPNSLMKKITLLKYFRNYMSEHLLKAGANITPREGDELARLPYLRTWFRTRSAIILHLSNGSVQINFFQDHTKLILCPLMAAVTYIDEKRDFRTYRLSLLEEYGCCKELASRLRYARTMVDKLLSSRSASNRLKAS

Question: How did the EC50 ([1]; Homo sapiens) turn out when `COc1cc2c(Oc3ccc(NC(=O)C4(C(=O)Nc5ccc(F)cc5)CC4)cc3F)ccnc2cc1OCCCN1CCOCC1` [Foretinib] was run?
Answer: The EC50 was 2600 ± 1040 nM.

Question: For `Cc1cc(Cl)ccc1-n1c(CCC(=O)N(C)C)ccc1-c1ccc(Br)cc1` [PB114], which “thermal stability of NanoLuc-PLK1” value [2] is on record?
Answer: The value was “less active”.

Question: And the “thermal stability of NanoLuc-PLK4” value [3]?
Answer: The value was “less active”.

Question: What about the “EC50, mitotic index assay” value ([4]; HeLa cells treated for 16 hr, Figure 5B) of the same molecule?
Answer: The value was “inactive”.

Question: Which EC50 [1] does the source give for `O=C1NC(=O)C(c2cn3c4c(cccc24)CCC3)C1c1c[nH]c2ccccc12` (centres unmarked) [Tivatinib] here?
Answer: The EC50 was 1200 ± 1030 nM.

Question: Which EC50 [4] does the source give for `CN(C)CCNC(=O)c1cccc(-c2ccc(-c3ccc(Br)cc3)n2-c2ccccc2C(F)(F)F)c1` [compound 4] here?
Answer: Its EC50 is 580 nM.

Question: `CN(C)CCNC(=O)c1ccc(-c2ccc(-c3ccc(Br)cc3)n2-c2ccccc2C(F)(F)F)cc1` [compound 5] was tested. Which EC50 [4] did it give?
Answer: Its EC50 is 360 nM.

Question: `CC[C@@H]1C(=O)N(C)c2cnc(Nc3ccc(C(=O)NC4CCN(C)CC4)cc3OC)nc2N1C1CCCC1` [BI2536, reference compound] was tested. Which GI50 [5] did it give?
Answer: The GI50 was 8.25 nM.

Question: What about the GI50 [6] of the same molecule?
Answer: The GI50 was 30.9 nM.

Question: What about the “acquisition of drug resistance” value [7] of the same molecule?
Answer: Its value is “readily acquire resistance”.

B1: TAMRA-labelled consensus PLK1 PBD binding phosphopeptide, 5-TAMRA-MAGPMQS(pThreonine)PLMGAKK-acid (peptide)
peptide: MAGPMQSTPLMGAKK
modifications: not fully specified; 5-TAMRA on the N-terminus; phosphothreonine (pThreonine) after MAGPMQS, residue 8 of the letters; C-terminal acid
notes: also called TAMRA-labeled substrate peptide
Question: Does B1 bind [8]?
Answer: Result: binds
